Experimental data reported in US20100022491A1, “4-HYDROXY-2-OXO-2,3-DIHYDRO-1,3-BENZOTHIAZOL-7YL COMPOUNDS FOR MODULATION OF B2-ADRENORECEPTOR ACTIVITY” (ASTRAZENECA AB, priority 2006, published 2010).
Where a name gives a salt, the structure may show the parent alone.

What was measured:
[1] = biological target: T1, recombinant human adrenergic beta 1 receptors (Homo sapiens, UniProt P08588); assay: Adrenergic β1 selectivity binding assay ([125I]-Iodocyanopindolol); conditions: inhibition of [125I]-Iodocyanopindolol (0.036 nM) binding; read-out: β1 bind p IC50 (converted)
T1 construct: purchased Euroscreen
T1 sequence (P08588 whole entry): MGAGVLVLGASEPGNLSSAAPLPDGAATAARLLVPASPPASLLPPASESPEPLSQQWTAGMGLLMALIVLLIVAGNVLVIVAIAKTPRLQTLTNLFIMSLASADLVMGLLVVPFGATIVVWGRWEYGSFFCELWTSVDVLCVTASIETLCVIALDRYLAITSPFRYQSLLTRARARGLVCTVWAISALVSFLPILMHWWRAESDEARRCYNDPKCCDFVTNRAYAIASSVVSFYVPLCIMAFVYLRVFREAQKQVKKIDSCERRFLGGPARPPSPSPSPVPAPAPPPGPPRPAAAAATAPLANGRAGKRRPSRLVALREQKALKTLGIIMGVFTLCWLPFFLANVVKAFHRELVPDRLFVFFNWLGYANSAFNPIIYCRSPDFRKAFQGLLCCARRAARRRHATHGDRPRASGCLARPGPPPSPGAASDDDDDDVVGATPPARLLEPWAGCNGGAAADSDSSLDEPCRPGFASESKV
Outline: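 Displacement of [^125I]-Iodocyanopindolol (0.036 nM final) from human β1 receptor membranes, 2 hours at room temperature, pH 7.4 HEPES/EDTA/NaCl buffer. After filtration, scintillation counting; NSB set with 10 μM propranolol and subtracted. Four-parameter logistic fitting gave pIC50.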

[2] = biological target: T2, recombinant human α1D receptor (Homo sapiens, UniProt P25100); assay: Adrenergic α1D selectivity binding assay ([3H]-prazosin); conditions: inhibition of [3H]-prazosin (0.3 nM) binding, HEK293 membranes; read-out: α1 bind pIC50 (converted)
T2 construct: expressed in transfected cells; host or cells: HEK293
T2 sequence (P25100 1-572): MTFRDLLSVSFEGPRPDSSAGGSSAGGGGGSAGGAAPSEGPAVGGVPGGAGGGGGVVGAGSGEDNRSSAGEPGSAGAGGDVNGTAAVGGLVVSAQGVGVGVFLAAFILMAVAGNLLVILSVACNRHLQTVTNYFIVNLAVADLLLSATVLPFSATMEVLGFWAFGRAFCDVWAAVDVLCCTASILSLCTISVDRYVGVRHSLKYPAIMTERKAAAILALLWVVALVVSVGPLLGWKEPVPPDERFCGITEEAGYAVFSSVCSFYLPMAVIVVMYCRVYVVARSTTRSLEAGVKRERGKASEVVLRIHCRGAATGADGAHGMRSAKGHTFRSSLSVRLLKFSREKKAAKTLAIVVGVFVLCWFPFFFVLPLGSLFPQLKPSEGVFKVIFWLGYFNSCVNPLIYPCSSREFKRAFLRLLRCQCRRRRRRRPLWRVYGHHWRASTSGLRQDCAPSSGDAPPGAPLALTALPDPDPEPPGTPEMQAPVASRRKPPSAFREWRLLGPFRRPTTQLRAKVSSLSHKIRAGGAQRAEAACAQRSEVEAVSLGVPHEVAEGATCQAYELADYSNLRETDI
Outline: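 Displacement of [3H]-prazosin (0.3 nM) from recombinant human α1D receptor in HEK293-cell membranes, 2 h at room temperature, pH 7.4 HEPES/EDTA/gelatin buffer. Filtration and scintillation counting, non-specific binding set with 10 μM BMY7378; four-parameter logistic fit gives pIC50.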

Row | Compound | IC50 [1] | IC50 [2]
1 | O=C(CCNCCc1cccc(F)c1F)N(CCNCCc1ccc(O)c2[nH]c(=O)sc12)C1CCCCC1 [Example 81, N^1-Cyclohexyl-N^3-[2-(2,3-difluorophenyl)ethyl]-N^1-(2-{[2-(4-hydroxy-2-oxo-2,3-dihydro-1,3-benzothiazol-7-yl)ethyl]amino}ethyl)-β-alaninamide bis-trifluoroacetic acid salt] | 6.31 µM | 0.2 µM
2 | O=C(CCNCCc1cccc(Cl)c1)N(CCNCCc1ccc(O)c2[nH]c(=O)sc12)C1Cc2ccccc2C1 [Example 42, N^3-[2-(3-Chlorophenyl)ethyl]-N^1-(2,3-dihydro-1H-inden-2-yl)-N^1-(2-{[2-(4-hydroxy-2-oxo-2,3-dihydro-1,3-benzothiazol-7-yl)ethyl]amino}ethyl)-β-alaninamide bis-trifluoroacetic acid salt] | 1.26 µM | 0.0631 µM
3 | CCCC[C@H](C)N(CCNCCc1ccc(O)c2[nH]c(=O)sc12)C(=O)CCNCCc1ccccc1 [Example 102, N-(2-{[2-(4-Hydroxy-2-oxo-2,3-dihydro-1,3-benzothiazol-7-yl)ethyl]amino}ethyl)-N-[(1S)-1-methylpentyl]-N^3-(2-phenylethyl)-β-alaninamide bis-trifluoroacetic acid salt] | 1.26 µM | 0.1 µM
4 | O=C(CCNCCc1cccc(C(F)(F)F)c1)N(CCNCCc1ccc(O)c2[nH]c(=O)sc12)C1CCCCCC1 [Example 82, N^1-Cycloheptyl-N^1-(2-{[2-(4-hydroxy-2-oxo-2,3-dihydro-1,3-benzothiazol-7-yl)ethyl]amino}ethyl)-N^3-{2-[3-(trifluoromethyl)phenyl]ethyl}-β-alaninamide bis-trifluoroacetic acid salt] | 2.51 µM | 0.251 µM
5 | CC(C)(C)CN(CCNCCc1ccc(O)c2[nH]c(=O)sc12)C(=O)CCNCCc1ccc(Cl)cc1 [Example 8, N^3-[2-(4-Chlorophenyl)ethyl]-N-(2,2-dimethylpropyl)-N-(2-{[2-(4-hydroxy-2-oxo-2,3-dihydro-1,3-benzothiazol-7-yl)ethyl]amino}ethyl)-β-alaninamide bis-trifluoroacetic acid salt] | 5.01 µM | 0.501 µM
6 | Cc1cccc(CCNCCC(=O)N(CCNCCc2ccc(O)c3[nH]c(=O)sc23)C2CCOCC2)c1 [Example 25, N-(2-{[2-(4-Hydroxy-2-oxo-2,3-dihydro-1,3-benzothiazol-7-yl)ethyl]amino}ethyl)-N^3-[2-(3-methylphenyl)ethyl]-N-(tetrahydro-2H-pyran-4-yl)-β-alaninamide bis-trifluoroacetic acid salt] | 5.01 µM | 0.251 µM

Results, then the compound that gave them:

Row | IC50 [1] | IC50 [2] | Compound
7 | 7.94 µM | 0.398 µM | O=C(CCNCCc1ccc(F)c(F)c1)N(CCNCCc1ccc(O)c2[nH]c(=O)sc12)C1CCCCC1 [Example 73, N^1-Cyclohexyl-N^3-[2-(3,4-difluorophenyl)ethyl]-N^1-(2-{[2-(4-hydroxy-2-oxo-2,3-dihydro-1,3-benzothiazol-7-yl)ethyl]amino}ethyl)-β-alaninamide bis-trifluoroacetic acid salt]
8 | 0.794 µM | 0.0794 µM | O=C(CCNCCc1cccc(Cl)c1)N(CCNCCc1ccc(O)c2[nH]c(=O)sc12)C1CCCCCC1 [Example 50, N^3-[2-(3-Chlorophenyl)ethyl]-N^1-cycloheptyl-N^1-(2-{[2-(4-hydroxy-2-oxo-2,3-dihydro-1,3-benzothiazol-7-yl)ethyl]amino}ethyl)-β-alaninamide bis-trifluoroacetic acid salt]
9 | 3.16 µM | 0.251 µM | O=C(CCNCCc1cccc(F)c1F)N(CCNCCc1ccc(O)c2[nH]c(=O)sc12)C1CCCCCC1 [Example 56, N^1-Cycloheptyl-N^3-[2-(2,3-difluorophenyl)ethyl]-N^1-(2-{[2-(4-hydroxy-2-oxo-2,3-dihydro-1,3-benzothiazol-7-yl)ethyl]amino}ethyl)-β-alaninamide bis-trifluoroacetic acid salt]
